The record followed here is patent US12559492B2, “BRAF degraders” (C4 Therapeutics, Inc., priority 2020, dated 2026).

The structures appear in SMILES notation. Where a name gives a salt, the structure may show the parent alone.

This assay concerns the target BRAF^V600E protein (Homo sapiens, UniProt P15056, V600E). The assay can be described thus: HiBiT cellular BRAF V600E degradation assay. The class given is cell-based. The note with it: 24 h incubation; for DC50: A375.10 cells (HiBiT tag knocked in at N-terminal of BRAF V600E), concentration at which 50% of total cellular BRAF V600E is degraded; for Emax: read-out: HiBit 24 h Emax. On the technique in general: With HiBiT, luminescence reflects the tagged protein that the partner subunit can reach.

The mark [1] stands for this setting: A375.10 cells, Emax = amount of residual protein remaining in the cell after compound treatment.

BRAF^V600E protein, sequence (P15056 whole entry V600E): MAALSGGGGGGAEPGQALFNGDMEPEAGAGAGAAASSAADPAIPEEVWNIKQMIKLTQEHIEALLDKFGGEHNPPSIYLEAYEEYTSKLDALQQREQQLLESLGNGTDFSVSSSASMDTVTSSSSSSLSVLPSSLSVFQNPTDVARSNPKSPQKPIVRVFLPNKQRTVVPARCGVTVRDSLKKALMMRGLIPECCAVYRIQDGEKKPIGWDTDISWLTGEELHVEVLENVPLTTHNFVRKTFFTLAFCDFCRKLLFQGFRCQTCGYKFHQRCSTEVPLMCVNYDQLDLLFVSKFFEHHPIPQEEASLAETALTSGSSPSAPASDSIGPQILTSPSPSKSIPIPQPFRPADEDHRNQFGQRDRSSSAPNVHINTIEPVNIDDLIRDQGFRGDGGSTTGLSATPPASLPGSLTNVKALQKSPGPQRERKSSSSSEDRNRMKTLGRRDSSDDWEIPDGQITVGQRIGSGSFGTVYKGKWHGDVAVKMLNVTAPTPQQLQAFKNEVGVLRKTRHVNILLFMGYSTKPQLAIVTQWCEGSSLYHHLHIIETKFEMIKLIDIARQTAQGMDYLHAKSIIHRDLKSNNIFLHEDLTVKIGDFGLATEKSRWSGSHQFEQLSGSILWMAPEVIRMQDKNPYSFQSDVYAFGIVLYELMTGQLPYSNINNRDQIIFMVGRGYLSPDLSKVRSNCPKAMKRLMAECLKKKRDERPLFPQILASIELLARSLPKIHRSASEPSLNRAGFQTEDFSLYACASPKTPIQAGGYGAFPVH

By DC50 is commonly meant the midpoint of the concentration-degradation curve. Low values mean a more potent degrader, high ones a less potent degrader. As usually defined, the Emax is the size of the effect at its maximum, as opposed to the concentration needed. As for `O=C1CCN(c2cccc(C3CCN(CC(=O)N4CCN(c5ccc(-c6cnc7[nH]cc(C(=O)c8c(F)ccc(NS(=O)(=O)N9CCCC9)c8F)c7c6)cc5)CC4)CC3)c2)C(=O)N1` [Example A88, N-[3-[5-[4-[4-[2-[4-[3-(2,4-Dioxo-1,3-diazinan-1-yl)phenyl]piperidin-1-yl]acetyl]piperazin-1-yl]phenyl]-1H-pyrrolo[2,3-b]pyridine-3-carbonyl]-2,4-difluorophenyl]pyrrolidine-1-sulfonamide], the DC50 is 52 nM. The Emax under setting [1] was found to be 26%.
Turning to `O=C1CCC(Nc2ccc(C3CCN(CCCC(=O)N4CC(c5ccc(-c6cnc7[nH]cc(C(=O)c8c(F)ccc(NS(=O)(=O)N9CCCC9)c8F)c7c6)cc5)C4)CC3)cc2)C(=O)N1` (stereo not drawn) [Example A89, N-[3-[5-[4-[1-[4-[4-[4-[(2,6-dioxopiperidin-3-yl)amino]phenyl]piperidin-1-yl]butanoyl]azetidin-3-yl]phenyl]-1H-pyrrolo[2,3-b]pyridine-3-carbonyl]-2,4-difluorophenyl]pyrrolidine-1-sulfonamide], it took 73 nM to reach half-maximal degradation (DC50). The Emax under setting [1] amounted to 12%.
On the same counts, the results for `CCN(C)S(=O)(=O)Nc1ccc(F)c(C(=O)c2c[nH]c3ncc(-c4cnc(N5CCC(N(C)CC(=O)N6CCC(c7ccc(NC8CCC(=O)NC8=O)cn7)CC6)CC5)nc4)cc23)c1F` (stereo not drawn) [Example A90, 5-[2-[4-[[2-[4-[5-[(2,6-Dioxopiperidin-3-yl)amino]pyridin-2-yl]piperidin-1-yl]-2-oxoethyl]-methylamino]piperidin-1-yl]pyrimidin-5-yl]-3-[3-[[ethyl(methyl)sulfamoyl]amino]-2,6-difluorobenzoyl]-1H-pyrrolo[2,3-b]pyridine;formic acid] are 31 nM and 20%.
On the same counts, the results for `CCN(C)S(=O)(=O)Nc1ccc(F)c(C(=O)c2c[nH]c3ncc(-c4cnc(N5CCN(C(=O)CN6CCC(c7ccc(N8CCC(=O)NC8=O)cc7)CC6)CC5)nc4)cc23)c1F` [Example A91, 5-[2-[4-[2-[4-[4-(2,4-Dioxo-1,3-diazinan-1-yl)phenyl]piperidin-1-yl]acetyl]piperazin-1-yl]pyrimidin-5-yl]-3-[3-[[ethyl(methyl)sulfamoyl]amino]-2,6-difluorobenzoyl]-1H-pyrrolo[2,3-b]pyridine] are 5 nM and 8%.
On the same counts, the results for `CCN(C)S(=O)(=O)Nc1ccc(F)c(C(=O)c2c[nH]c3ncc(-c4cnc(N5CCC(N(C)C(=O)CN6CCC(c7ccc(NC8CCC(=O)NC8=O)cn7)CC6)CC5)nc4)cc23)c1F` (stereo not drawn) [Example A92, 2-[4-[5-[(2,6-Dioxopiperidin-3-yl)amino]pyridin-2-yl]piperidin-1-yl]-N-[1-[5-[3-[3-[[ethyl(methyl)sulfamoyl]amino]-2,6-difluorobenzoyl]-1H-pyrrolo[2,3-b]pyridin-5-yl]pyrimidin-2-yl]piperidin-4-yl]-N-methylacetamide; formic acid] are 8 nM and 7%.
In the case of `CCN(C)S(=O)(=O)Nc1ccc(F)c(C(=O)c2c[nH]c3ncc(-c4cnc(N5CCC(NCC(=O)N6CCC(c7ccc(NC8CCC(=O)NC8=O)cn7)CC6)CC5)nc4)cc23)c1F` (stereo not drawn) [Example A93, 5-[2-[4-[[2-[4-[5-[(2,6-Dioxopiperidin-3-yl)amino]pyridin-2-yl]piperidin-1-yl]-2-oxoethyl]amino]piperidin-1-yl]pyrimidin-5-yl]-3-[3-[[ethyl(methyl)sulfamoyl]amino]-2,6-difluorobenzoyl]-1H-pyrrolo[2,3-b]pyridine;formic acid], the DC50 is 16 nM. For the same compound, the Emax under setting [1] is 14%.
For `CCN(C)S(=O)(=O)Nc1ccc(F)c(C(=O)c2c[nH]c3ncc(-c4cnc(N5CCC(C(=O)N6CCC(c7ccc(NC8CCC(=O)NC8=O)cc7)CC6)CC5)nc4)cc23)c1F` (stereo not drawn) [Example A94, 5-[2-[4-[4-[4-[(2,6-Dioxopiperidin-3-yl)amino]phenyl]piperidine-1-carbonyl]piperidin-1-yl]pyrimidin-5-yl]-3-[3-[[ethyl(methyl)sulfamoyl]amino]-2,6-difluorobenzoyl]-1H-pyrrolo[2,3-b]pyridine], it took 13 nM to reach half-maximal degradation (DC50). Under setting [1], the “HiBit 24 h Emax” value was 8%.
In turn, `CCN(C)S(=O)(=O)Nc1ccc(F)c(C(=O)c2c[nH]c3ncc(-c4ccc(N5CCC(N(C)C(=O)CN6CCC(c7ccc(NC8CCC(=O)NC8=O)cn7)CC6)CC5)nc4)cc23)c1F` (stereo not drawn) [Example A95, 2-[4-[5-[(2,6-Dioxopiperidin-3-yl)amino]pyridin-2-yl]piperidin-1-yl]-N-[1-[5-[3-[3-[[ethyl(methyl)sulfamoyl]amino]-2,6-difluorobenzoyl]-1H-pyrrolo[2,3-b]pyridin-5-yl]pyridin-2-yl]piperidin-4-yl]-N-methylacetamide;hydrochloride] registered a DC50 of 11 nM. For the same compound, under setting [1], the maximal response (Emax) came to 7%.
For `CCN(C)S(=O)(=O)Nc1ccc(F)c(C(=O)c2c[nH]c3ncc(-c4ccc(N5CCC(NCC(=O)N6CCC(c7ccc(NC8CCC(=O)NC8=O)cn7)CC6)CC5)cc4)cc23)c1F` (stereo not drawn) [Example A96, 5-[4-[4-[[2-[4-[5-[(2,6-Dioxopiperidin-3-yl)amino]pyridin-2-yl]piperidin-1-yl]-2-oxoethyl]amino]piperidin-1-yl]phenyl]-3-[3-[[ethyl(methyl)sulfamoyl]amino]-2,6-difluorobenzoyl]-1H-pyrrolo[2,3-b]pyridine; hydrochloride], it took 18 nM to reach half-maximal degradation (DC50). For the same compound, the Emax under setting [1] was 9%.
With `CCN(C)S(=O)(=O)Nc1ccc(F)c(C(=O)c2c[nH]c3ncc(-c4ccc(N5CCC(NCC(=O)N6CCC(c7ccc(OC8CCC(=O)NC8=O)cn7)CC6)CC5)cc4)cc23)c1F` (stereo not drawn) [Example A97, 5-[4-[4-[[2-[4-[5-(2,6-Dioxopiperidin-3-yl)oxypyridin-2-yl]piperidin-1-yl]-2-oxoethyl]amino]piperidin-1-yl]phenyl]-3-[3-[[ethyl(methyl)sulfamoyl]amino]-2,6-difluorobenzoyl]-1H-pyrrolo[2,3-b]pyridine;hydrochloride], the DC50 is 84 nM. Besides, the Emax under setting [1] amounted to 12%.
As to `CCN(C)S(=O)(=O)Nc1ccc(F)c(C(=O)c2c[nH]c3ncc(-c4ccc(N5CCC(NCC(=O)N6CCC(c7ccc(NC8CCC(=O)NC8=O)cc7)CC6)CC5)cc4)cc23)c1F` (stereo not drawn) [Example A98, 5-[4-[4-[[2-[4-[4-[(2,6-Dioxopiperidin-3-yl)amino]phenyl]piperidin-1-yl]-2-oxoethyl]amino]piperidin-1-yl]phenyl]-3-[3-[[ethyl(methyl)sulfamoyl]amino]-2,6-difluorobenzoyl]-1H-pyrrolo[2,3-b]pyridine; hydrochloride], the DC50 was found to be 12 nM. Besides, the Emax under setting [1] was determined as 12%.
Consider `CCN(C)S(=O)(=O)Nc1ccc(F)c(C(=O)c2c[nH]c3ncc(-c4ccc(N5CCC(NCC(=O)N6CCC(c7ccc(OC8CCC(=O)NC8=O)cc7)CC6)CC5)cc4)cc23)c1F` (stereo not drawn) [Example A99, 5-[4-[4-[[2-[4-[4-(2,6-Dioxopiperidin-3-yl)oxyphenyl]piperidin-1-yl]-2-oxoethyl]amino]piperidin-1-yl]phenyl]-3-[3-[[ethyl(methyl)sulfamoyl]amino]-2,6-difluorobenzoyl]-1H-pyrrolo[2,3-b]pyridine;hydrochloride], for which half-maximal degradation (DC50) was put at 32 nM. In addition, the Emax under setting [1] is 9%.
